This is an account of results in patent publication US20230181597A1, “METAL COMPLEXES OF NOCARDAMINE AND THEIR USE IN PHARMACEUTICAL COMPOSITIONS” (priority 2014, published 2023).

The conditions of data set [1]: cited from earlier work.
Data set [2] concerns Bombyx mori (silkworm) ovary-derived cultured cell line cells. Particulars: reported in the literature; cited from earlier work.
The subject of data set [3] is croton oil-induced irritant contact dermatitis (ICD) in mice ears. Put plainly: Croton oil-induced irritant contact dermatitis (ICD) model, ear swelling. Format: in vivo, Balb/c female mice.
The subject of the next data set is IL-13. Kind of data set: IL-13 level in ear tissue of ICD mice (ELISA). Format: in vivo, Balb/c female mice. The note with it: 0.5% ointment at t=3 h, measured at t=6 h (FIG. 7). Here is the method:
(§1) The samples were homogenized, and protein concentration was measured by Bradford procedure. The concentration of cytokines was determined by ELISA method, using commercially available kits according to the Manufacturer's protocols (RayBiotech, GA, USA).
The assumed anti-inflammatory activity of the zinc-nocardamine complex was tested by measuring the concentrations of various anti-inflammatory cytokines, specifically, IL-4, IL-10 and IL-13, in ear tissue of mice. The concentrations of these cytokines were measured and their pattern of change along the experiment was compared for each: at baseline t=0 (no exposure), at t=3 h after exposure to croton oil, at t=6 h after exposure to croton oil, and at 6 h after exposure to croton oil where these ears had been treated with the zinc-nocardamine complex at t=3 h after the exposure to the croton oil. […] The concentration of the cytokines was determined by ELISA method, using commercially available ELISA kits, according to the Manufacturer protocol (RayBiotech, GA, USA; Diaclone, Besançon, France).
(In general: An ELISA detects its analyte on a solid surface through an enzyme-linked reagent.)

The next data set deals with TNF-α. Kind of data set: TNF-α level in ear tissue of ICD mice (ELISA). Format: in vivo, Balb/c female mice. Particulars: t=6 h after croton oil, 0.5% ointment (FIG. 6C). The method, then:
as §1
(§2) In order to study the underlying mechanism of the zinc-nocardamine complex, its assumed anti-inflammatory activity was tested by measuring the concentrations of various pro-inflammatory cytokines, in the ears, along the experimental protocol, specifically, IL-1α, IL-6, IL-17 and TNF-α. The concentration of these cytokines were measured in ear tissue that had been exposed to croton oil (at t=0) and was left untreated to t=6 h. The concentration was compared to the concentrations at t=6 h, in ears which were exposed at t=0, and treated with the complex at t=3 h.
(§3) The effect of ICD-induced inflammatory process on the concentration of IL-1α, IL-6, TNF-α and IL-17 within the ear tissue is shown in FIG. 6A-6D. […] The concentration of the cytokines was determined by ELISA method, using commercially available kits, according to the Manufacturer protocol (RayBiotech, GA, USA)

The test system of data set [4] is P. aeruginosa. Kind of data set: Bactericidal activity (bacterial viability) on Petri dishes. In kind it is cell-based, Pseudomonas aeruginosa. Particulars: 5 mg/ml (FIG. 9B). Here is the method: (§4) The concentrations of zinc-nocardamine, in four quadrants (1-4) of a Petri dish, were set as follows: 1-0 mg/ml; 2-5 mg/ml; 3-1.7 mg/ml; 4-0.5 mg/ml.
(§5) The anti-bacterial effect of zinc-nocardamine was assessed on the following types of pathogenic bacteria: E. coli (Gram-negative), P. aeruginosa (Gram-negative) and S. aureus (Gram-positive) (isolated in Hadassah-Ein Karem Hospital). More specifically, the experiment was performed as following: Each bacterial strain was grown overnight at 37° C., under aeration of 200 rpm, in the appropriate medium (EPEC (E. coli)) and P. aeruginosa in LB broth, S. aureus in BHI broth. Both media were purchased from BD (NJ, USA). Series of three-fold consecutive dilutions were performed in a 96-well plate, and bacteria were then added to the wells at a final OD600 of 0.01. The experiments with all three strains were performed in duplicate. Zinc-nocardamine 10 mg/ml aqueous solution was prepared in advance; prior to the experiment it was diluted in the appropriate media in a ratio of 1:2, to obtain a stock concentration of 5 mg/ml. This stock was further diluted to 1.7, 0.5, 0.18, 0.06, 0.02, 0.002, 0.0007, and 0.0002 mg/ml and added to appropriate wells. Then the plate was incubated in a plate reader for 24 h, and the kinetics of OD measurements were recorded every 20 minutes by Eon plate reader (BioTek, VE, USA). […]

A further data set relates to E. coli. The data set is described as above. In kind it is cell-based, Escherichia coli. The note with it: 5 mg/ml (FIG. 9A). The method, then: as §4, §5
The subject of the next data set is IL-6. Kind of data set: IL-6 level in ear tissue of ICD mice (ELISA). In kind it is in vivo, Balb/c female mice. The note with it: t=6 h after croton oil, 0.5% ointment (FIG. 6B). The method, then:
as §1, §2, §3

The subject of a further data set is E. coli (EPEC). Put plainly: Bacterial growth curves (OD, 96-well plate, 24 h). Format: cell-based, Escherichia coli. The note with it: 1.7 mg/ml (FIG. 8A). Here is the method: as §5, with “Zinc-nocardamine 10 mg/ml aqueous solution was prepared in advance; prior to the experiment it was diluted in the appropriate media in a ratio of 1:2, to obtain a stock concentration of 5 mg/ml. This stock was further diluted to 1.7, 0.5, 0.18, 0.06, 0.02, 0.002, 0.0007, and 0.0002 mg/ml and added to appropriate wells.” left out
(§6) The anti-bacterial effect of zinc-nocardamine was assessed on the following types of pathogenic bacteria: E. coli (Gram-negative), P. aeruginosa (Gram-negative) and S. aureus (Gram-positive) (isolated in Hadassah-Ein Karem Hospital). […] The plate was then incubated in a plate reader for 24 h, and the kinetics of OD measurements were recorded, every 20 minutes. […]

For data set [5], the system named is P. aeruginosa. Put plainly: Bacterial growth curves (OD, 96-well plate, 24 h). In kind it is cell-based, Pseudomonas aeruginosa. The note with it: 1.7 mg/ml (FIG. 8B). Here is the method:
as §5, with “Zinc-nocardamine 10 mg/ml aqueous solution was prepared in advance; prior to the experiment it was diluted in the appropriate media in a ratio of 1:2, to obtain a stock concentration of 5 mg/ml. This stock was further diluted to 1.7, 0.5, 0.18, 0.06, 0.02, 0.002, 0.0007, and 0.0002 mg/ml and added to appropriate wells.” left out
as §6

The subject of another data set is IL-17. Kind of data set: IL-17 level in ear tissue of ICD mice (ELISA). In kind it is in vivo, Balb/c female mice. The note with it: t=6 h after croton oil, 0.5% ointment (FIG. 6D). The method, then: as §1, §2, §3
The subject of data set [6] is S. aureus. Put plainly: Bacterial growth curves (OD, 96-well plate, 24 h). In kind it is cell-based, Staphylococcus aureus. Here is the method:
as §5, with “Zinc-nocardamine 10 mg/ml aqueous solution was prepared in advance; prior to the experiment it was diluted in the appropriate media in a ratio of 1:2, to obtain a stock concentration of 5 mg/ml. This stock was further diluted to 1.7, 0.5, 0.18, 0.06, 0.02, 0.002, 0.0007, and 0.0002 mg/ml and added to appropriate wells.” left out
as §6

In another data set the test system is IL-1α. Kind of data set: IL-1α level in ear tissue of ICD mice (ELISA). In kind it is in vivo, Balb/c female mice. Particulars: t=6 h after croton oil, 0.5% ointment (FIG. 6A). Here is the method:
as §1, §2, §3

In data set [7] the test system is S. aureus. Kind of data set: Bactericidal activity (bacterial viability) on Petri dishes. Format: cell-based, Staphylococcus aureus. Particulars: 5 mg/ml (FIG. 9C). Here is the method:
as §4, §5

Take `CC(=O)N(O)CCCCCNC(=O)CCC(=O)N(O)CCCCCNC(=O)CCC(=O)N(O)CCCCCN` [desferrioxamine B]: the water solubility entry in data set [1] is given as “about 50 mg/ml”.

`O=C1CCC(=O)N(O)CCCCCNC(=O)CCC(=O)N(O)CCCCCNC(=O)CCC(=O)N(O)CCCCCN1` [nocardamine]: the “water solubility (description)” value in data set [1] is reported as “soluble in water with heating”. In data set [2], the “change of cell morphology” value is recorded as “change the morphology of insect Bombyx mori (silkworm) ovary-derived cultured cell line cells into spindle-like configuration”. In addition, in [3] (0.5% w/w ointment applied 3 h after croton oil (FIG. 2B)), the “recovery from ICD versus untreated and zinc-nocardamine groups” value is given as “recovered better than the untreated ones, their recovery was much slower than the recovery observed in mice that received zinc-nocardamine complex”.

For the compound zinc-nocardamine complex, the “IL-13 level in ear tissue” value with IL-13 was “restoring the IL-13 level back to its baseline level”. For the same compound, the “concentration of TNF-α in ear tissue” value with TNF-α was “reduced the concentration of the cytokines to nearly the basal level”. Further, the “bactericidal activity on P. aeruginosa” value with P. aeruginosa [4] was “bactericidal activity was obtained”. The “bactericidal activity on E. coli” value in the data set with E. coli is given as “bactericidal activity was obtained”. The “concentration of IL-6 in ear tissue” value with IL-6 is on record as “reduced the concentration of the cytokines to nearly the basal level”. For the same compound, the “growth inhibition of E. coli” value in the data set with E. coli (EPEC) is listed as “growth inhibition was observed”. Moreover, the “growth inhibition of P. aeruginosa” value with P. aeruginosa [5] was “mild inhibition”. In addition, the “concentration of IL-17 in ear tissue” value in the data set with IL-17 is reported as “reduced the concentration of the cytokines to nearly the basal level”. In addition, in [3] (dose-response 0.1, 0.2, 0.5%, applied 3 h after irritant (FIG. 3)), the “optimal concentration in Vaseline-based ointment” value was determined as 0.5%. In addition, the “growth inhibition of S. aureus” value in the data set with S. aureus [6] (0.5 mg/ml (FIG. 8C)) and in the data set with S. aureus [6] (1.7 mg/ml (FIG. 8C)) was “growth inhibition was observed” throughout. Moreover, the “concentration of IL-1α in ear tissue” value in the data set on IL-1α is given as “reduced the concentration of the cytokines to nearly the basal level”. The “bactericidal activity on S. aureus” value in the data set on S. aureus [7] is given as “bactericidal activity was obtained”.
